Patent publication US20130303535A1, “NOVEL BICYCLIC HETEROCYCLIC COMPOUND” (priority 2008, published 2013)

Target: TTX resistant Na channel of human SNS-expressing cell (SNS) (Homo sapiens, UniProt Q9Y5Y9)
Assay: cell-based
Details: CHO-K1, compound concentration 12.5 μM; read-out: SNS inhibitory rate (%)

TTX resistant Na channel of human SNS-expressing cell (SNS), sequence (Q9Y5Y9 whole entry, looked up): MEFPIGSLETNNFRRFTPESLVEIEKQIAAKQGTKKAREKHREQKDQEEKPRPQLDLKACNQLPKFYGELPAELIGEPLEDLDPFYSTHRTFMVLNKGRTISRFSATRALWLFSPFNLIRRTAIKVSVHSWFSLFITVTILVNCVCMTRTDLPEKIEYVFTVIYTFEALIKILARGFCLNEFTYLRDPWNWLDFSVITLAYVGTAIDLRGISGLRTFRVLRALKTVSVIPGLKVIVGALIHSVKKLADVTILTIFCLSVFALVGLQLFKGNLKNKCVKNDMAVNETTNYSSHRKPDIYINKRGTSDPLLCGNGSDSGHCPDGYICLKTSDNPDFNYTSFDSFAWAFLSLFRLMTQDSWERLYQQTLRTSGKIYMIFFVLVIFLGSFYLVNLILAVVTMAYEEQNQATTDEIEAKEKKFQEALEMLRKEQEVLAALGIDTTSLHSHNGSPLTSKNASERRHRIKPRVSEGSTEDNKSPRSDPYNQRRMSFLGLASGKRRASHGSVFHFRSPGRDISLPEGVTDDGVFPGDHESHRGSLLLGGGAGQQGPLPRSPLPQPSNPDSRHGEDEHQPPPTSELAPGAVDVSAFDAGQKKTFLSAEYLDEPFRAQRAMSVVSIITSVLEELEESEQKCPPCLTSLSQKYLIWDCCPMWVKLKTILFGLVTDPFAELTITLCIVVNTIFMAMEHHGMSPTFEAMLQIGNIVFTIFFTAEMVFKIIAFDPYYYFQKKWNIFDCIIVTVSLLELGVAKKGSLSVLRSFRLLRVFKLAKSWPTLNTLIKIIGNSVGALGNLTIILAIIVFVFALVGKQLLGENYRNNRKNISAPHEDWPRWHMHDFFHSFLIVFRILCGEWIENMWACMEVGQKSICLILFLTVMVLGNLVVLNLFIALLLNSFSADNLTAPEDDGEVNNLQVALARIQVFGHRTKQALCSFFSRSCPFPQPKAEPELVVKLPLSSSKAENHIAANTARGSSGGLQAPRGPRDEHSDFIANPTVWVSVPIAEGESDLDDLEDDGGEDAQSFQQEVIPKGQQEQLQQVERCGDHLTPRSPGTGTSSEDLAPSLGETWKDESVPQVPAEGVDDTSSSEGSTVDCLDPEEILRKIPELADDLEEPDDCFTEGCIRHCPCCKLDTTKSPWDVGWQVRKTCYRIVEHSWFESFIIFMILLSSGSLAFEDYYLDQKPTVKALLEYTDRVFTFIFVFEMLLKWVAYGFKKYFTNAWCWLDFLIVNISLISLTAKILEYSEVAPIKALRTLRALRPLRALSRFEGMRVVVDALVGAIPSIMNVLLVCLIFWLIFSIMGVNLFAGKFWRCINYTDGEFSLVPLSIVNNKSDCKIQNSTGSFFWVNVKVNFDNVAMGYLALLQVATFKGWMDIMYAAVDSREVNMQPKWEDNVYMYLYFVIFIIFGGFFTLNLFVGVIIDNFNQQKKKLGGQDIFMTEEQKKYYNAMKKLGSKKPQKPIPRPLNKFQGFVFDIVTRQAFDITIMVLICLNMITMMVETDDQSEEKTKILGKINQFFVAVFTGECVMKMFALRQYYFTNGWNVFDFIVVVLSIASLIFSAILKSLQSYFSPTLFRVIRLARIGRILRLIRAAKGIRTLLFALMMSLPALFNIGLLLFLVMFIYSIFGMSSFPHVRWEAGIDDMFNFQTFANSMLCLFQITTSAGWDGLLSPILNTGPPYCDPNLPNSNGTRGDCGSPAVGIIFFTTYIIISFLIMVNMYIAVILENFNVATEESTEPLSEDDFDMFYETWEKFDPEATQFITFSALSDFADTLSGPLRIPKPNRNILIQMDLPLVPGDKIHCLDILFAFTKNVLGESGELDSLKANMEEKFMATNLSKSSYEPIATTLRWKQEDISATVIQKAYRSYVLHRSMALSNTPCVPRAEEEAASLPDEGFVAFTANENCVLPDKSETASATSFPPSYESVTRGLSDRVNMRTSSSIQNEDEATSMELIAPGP

Row | SMILES | inhibition at 12.5 µM
1 | CCOCCn1c(CN[C@@H](C)C(N)=O)nc2ccc(Oc3ccc(OC)cc3)cc21 [Example 75, N^2-{[1-(2-ethoxyethyl)-6-(4-methoxyphenoxy)-1H-benzimidazol-2-yl]methyl}-L-alaninamide] | 0%
2 | CCOCCn1c(CNC(C)(C)C(N)=O)nc2ccc(-c3ccc(C)cc3F)cc21 [Example 166] | 62.7%
3 | NC(=O)CNCc1nc2ccc(Oc3ccc(F)cc3)cc2n1C1CCOCC1 [Example 65] | 47.8%
4 | CCOCCn1c(CN[C@@H](C)C(N)=O)nc2ccc(Oc3ccccc3Cl)cc21 [Example 31] | 92.1%
5 | CC(C)NC(=O)N1CCC(n2c(CN[C@@H](C)C(N)=O)nc3ccc(Oc4ccc(F)cc4)cc32)CC1 [Example 84, 4-[2-({[(2S)-1-amino-1-oxopropan-2-yl]amino}methyl)-6-(4-fluorophenoxy)-1H-benzimidazol-1-yl]-N-(propan-2-yl)piperidine-1-carboxamide] | 76.8%
6 | CCOCCn1c(CN[C@@H](C)C(N)=O)nc2c(F)cc(-c3ccc(F)cc3)cc21 [Example 114, N^2-{[1-(2-ethoxyethyl)-4-fluoro-6-(4-fluorophenyl)-1H-benzimidazol-2-yl]methyl}-L-alaninamide] | 6.5%
7 | CCOCCn1c(CN[C@@H](C)C(N)=O)nc2cc(Cl)c(-c3ccc(F)cc3F)cc21 [Example 179] | 67.4%
8 | CCOCCn1c(CN[C@@H](C)C(N)=O)nc2ccc(Oc3cccc(F)c3F)cc21 [Example 58] | 71.2%
9 | C[C@H](NCc1nc2ccc(Oc3ccc(OC(F)(F)F)cc3)cc2n1CC(C)(C)O)C(N)=O [Example 103] | 87.9%
10 | CCOCCn1c(CN[C@@H](C)C(N)=O)nc2ccc(OCc3ccc(F)cc3)cc21 [Example 78, N^2-({1-(2-ethoxyethyl)-6-[(4-fluorobenzyl)oxy]-1H-benzimidazol-2-yl}methyl)-L-alaninamide] | 22.2%
11 | CCOCCn1c(CN[C@@H](CC)C(N)=O)nc2ccc(-c3ccc(C)c(C)c3)cc21 [Example 163] | 36.5%
12 | C[C@@H](NCc1nc2ccc(Oc3ccccc3)cc2n1C1CCC1)C(N)=O [Example 34] | 6.7%
13 | CCOCCCn1c(CN[C@@H](C)C(N)=O)nc2ccc(Oc3ccc(F)cc3)cc21 [Example 47] | 86.6%
14 | CCOCCn1c(CN[C@@H](C)C(N)=O)nc2ccc(OCc3ccccc3)cc21 [Example 76, N^2-{[6-(benzyloxy)-1-(2-ethoxyethyl)-1H-benzimidazol-2-yl]methyl}-L-alaninamide] | 18.8%
15 | C[C@H](NCc1nc2ccc(Oc3ccc(OC(F)(F)F)cc3)cc2n1C1CCOCC1)C(N)=O [Example 130] | 42.1%
16 | NC(=O)[C@@H]1CCCN1Cc1nc2ccc(Oc3ccccc3)cc2n1C[C@@H]1CCCO1 [Example 21] | 100%
17 | CCOCCn1c(CN[C@@H](C)C(N)=O)nc2ccc(Oc3ccccc3)nc21 [Example 79, N^2-{[3-(2-ethoxyethyl)-5-phenoxy-3H-imidazo[4,5-b]pyridin-2-yl]methyl}-L-alaninamide] | 3.5%
18 | NC(=O)CNCc1nc2ccc(Oc3ccc(F)cc3)cc2n1C1CCC1 [Example 18] | 14.2%
19 | CCOCCn1c(CN[C@@H](C)C(N)=O)nc2ccc(Oc3ccc(F)cc3Cl)cc21 [Example 93] | 82.1%
20 | CCOCCn1c(CN[C@@H](CC)C(N)=O)nc2ccc(Oc3ccc(F)cc3)cc21 [Example 41] | 99.7%
21 | COCCn1c(CNC(C)(C)C(N)=O)nc2ccc(Oc3ccc(F)cc3)cc21 [Example 91, N^2-{[6-(4-fluorophenoxy)-1-(2-methoxyethyl)-1H-benzimidazol-2-yl]methyl}-2-methylalaninamide] | 76.4%
22 | NC(=O)[C@@H]1CCCN1Cc1nc2ccc(Oc3ccccc3)cc2n1CC1CCOCC1 [Example 16] | 96.2%

Row | SMILES | inhibition at 12.5 µM
23 | CCOCCn1c(CN[C@@H](C)C(N)=O)nc2ccc(Oc3ccccc3)cc21 [Example 1, N^2-{[1-(2-ethoxyethyl)-6-phenoxy-1H-benzimidazol-2-yl]methyl}-L-alaninamide] | 45.8%
24 | CCn1c(CN[C@@H](C)C(N)=O)nc2ccc(Oc3ccc(F)cc3F)cc21 [Example 98] | 69.8%
25 | CCOCCn1c(CN[C@@H](C)C(N)=O)nc2cc(Cl)c(-c3ccc(F)c(F)c3)cc21 [Example 180] | 4.5%
26 | CCOCCn1c(CN[C@@H](C)C(=O)NCCOC)nc2ccc(Oc3ccc(F)cc3)cc21 [Example 88] | 83.5%
27 | CCOCCn1c(CN[C@@H](C)C(N)=O)nc2cc(F)c(-c3ccc(F)c(F)c3)cc21 [Example 183] | 72.3%
28 | CCOCCn1c(CN[C@@H](C)C(N)=O)nc2cc(F)c(-c3ccccc3)cc21 [Example 185] | 64.6%
29 | C[C@H](NCc1nc2ccc(Oc3ccc(OC(F)(F)F)cc3)cc2n1C[C@H]1CCCO1)C(N)=O [Example 132] | 86.4%
30 | CCOCCn1c(CN[C@@H](C)C(N)=O)nc2cc(C)c(-c3ccc(F)cc3)cc21 [Example 113, N^2-{[1-(2-ethoxyethyl)-6-(4-fluorophenyl)-5-methyl-1H-benzimidazol-2-yl]methyl}-L-alaninamide] | 64.7%
31 | C[C@H](NCc1nc2ccc(Oc3ccc(F)cc3)cc2n1C1CCNCC1)C(N)=O [Example 83, N^2-{[6-(4-fluorophenoxy)-1-(piperidin-4-yl)-1H-benzimidazol-2-yl]methyl}-L-alaninamide] | 0%
32 | CCOCCn1c(CN[C@@H](C)C(N)=O)nc2ccc(-c3c(C)cc(C)cc3C)cc21 [Example 164] | 3.7%
33 | CCOCCn1c(CNC(C)(C)C(N)=O)nc2ccc(-c3ccc(F)cc3C)cc21 [Example 158] | 86.1%
34 | COCCCn1c(CN[C@@H](C)C(N)=O)nc2ccc(Oc3ccc(F)cc3F)cc21 [Example 123] | 96.8%
35 | CCOCCn1c(CN[C@@H](C)C(N)=O)nc2cc(F)c(-c3ccc(F)c(C)c3)cc21 [Example 188] | 87%
36 | C[C@H](NCc1nc2ccc(Oc3ccccc3)cc2n1C1CCC1)C(N)=O [Example 11] | 63%
37 | CCn1c(CN[C@@H](C)C(N)=O)nc2ccc(Oc3ccc(OC(F)(F)F)cc3)cc21 [Example 104] | 83.6%
38 | C[C@H](NCc1nc2ccc(Oc3ccc(F)c(F)c3)cc2n1C1CCOCC1)C(N)=O [Example 128] | 85%
39 | CC(C)(NCc1nc2ccc(Oc3ccccc3)cc2n1C[C@@H]1CCCO1)C(N)=O [Example 35] | 10.8%
40 | NC(=O)[C@@H]1CCCN1Cc1nc2ccc(Oc3ccccc3)cc2n1C[C@H]1CCCO1 [Example 19] | 100%
41 | C[C@H](NCc1nc2ccc(Oc3ccc(F)cc3F)cc2n1CC(C)(C)O)C(N)=O [Example 105] | 75.1%
42 | C[C@H](NCc1nc2ccc(Oc3ccc(F)cc3)cc2n1C1CCN(C(=O)OC(C)(C)C)CC1)C(N)=O [Example 82, tert-butyl 4-[2-({[(2S)-1-amino-1-oxopropan-2-yl]amino}methyl)-6-(4-fluorophenoxy)-1H-benzimidazol-1-yl]piperidine-1-carboxylate] | 30.7%
43 | C[C@H](NCc1nc2ccc(Oc3ccc(OC(F)(F)F)cc3)cc2n1C1CC1)C(N)=O [Example 100] | 72.1%
44 | NC(=O)CNCc1nc2ccc(Oc3ccccc3)cc2n1C1CCC1 [Example 12] | 17%
